Measurements published in ChEMBL document CHEMBL4483862, “Open-source discovery of chemical leads for next-generation chemoprotective antimalarials” (2018).

Tested on: Plasmodium berghei
Test: Luciferase/luciferin-expressing antifolate-resistant parasites were used to infect a culture of HepG2 cells that were pre-incubated with compounds. Infected hepatocytes emit light due to the luciferase reaction. Assay results are presented as the percent inhibition of light emission compared to control. […]
Type: functional
Conditions: sporozoite; for IC90: read-out: LUCIFERASE INFECTION ASSAY - IC90
[1] = read-out: LUCIFERASE INFECTION ASSAY - IC50

`Cc1ccc(S(=O)(=O)CCN2C(=O)CSC2=O)cc1` was tested, and the IC50 [1] was greater than 11 µM and the IC90 was greater than 11 µM.

`CC1(C)C=Cc2cc(/C(N)=N/OC(=O)c3ccccc3)ccc2O1` gave an IC50 (FFLUC_HILL_SLOPE 1.86, FFLUC_R_SQUARED 0.604, PBLUC_HILL_SLOPE 0.872, PBLUC_R_SQUARED 0.782, read-out: LUCIFERASE INFECTION ASSAY - IC50) of 0.0169 µM and an IC90 of 0.211 µM.

`O=C(NC1CC1)c1ccc(-c2cnc3c(NCc4ccco4)nccn23)cc1` gave an IC50 (HEPG2TOX_HILL_SLOPE 10.4, HEPG2TOX_R_SQUARED 0.433, PBLUC_HILL_SLOPE 17.4, PBLUC_R_SQUARED 0.253, read-out: LUCIFERASE INFECTION ASSAY - IC50) of 3.03 µM and an IC90 of 3.44 µM.

Work on `COc1ccccc1-c1noc(CSc2nc3ccccc3c(=O)n2-c2ccc(C)cc2)n1` yielded an IC50 [1] greater than 10 µM and an IC90 greater than 10 µM.

In the case of `CCNC(=O)c1cccc(Nc2ccc(C(=O)c3ccccc3)cc2)c1`, the IC50 (PBLUC_HILL_SLOPE 4.36, PBLUC_R_SQUARED 0.612, read-out: LUCIFERASE INFECTION ASSAY - IC50) is reported as 5.2 µM and the IC90 is reported as 8.6 µM.

`N=C(N)NN=C1CCCCCCCCCCC1` showed an IC50 (HEPG2TOX_HILL_SLOPE 5.24, 2.64, HEPG2TOX_R_SQUARED 0.916, 0.913, PBLUC_HILL_SLOPE 15.5, 3.20, PBLUC_R_SQUARED 0.175, 0.492, read-out: LUCIFERASE INFECTION ASSAY - IC50) of 11.7 µM and an IC90 greater than 12 µM.

With `CC(C)(C)c1ccc(C(=N)SC(C(=O)C(F)(F)F)c2ccccc2)cc1` (stereo not drawn) the IC50 (FFLUC_HILL_SLOPE 64.5, FFLUC_R_SQUARED 0.585, PBLUC_HILL_SLOPE 1.09, PBLUC_R_SQUARED 0.88, read-out: LUCIFERASE INFECTION ASSAY - IC50) was 0.269 µM and the IC90 was 2.03 µM.

`CS(=O)(=O)Nc1cccc(-c2cn3c(-c4ccc5c(c4)OCO5)cnc3cn2)c1` showed an IC50 (PBLUC_HILL_SLOPE 1.71, PBLUC_R_SQUARED 0.507, read-out: LUCIFERASE INFECTION ASSAY - IC50) of 6.08 µM and an IC90 greater than 8.08 µM.

`Cc1nccc(-c2cccc(N/N=C(\C#N)S(=O)(=O)c3ccccn3)c2)n1` showed an IC50 (HEPG2TOX_HILL_SLOPE 1.84, HEPG2TOX_R_SQUARED 0.959, PBLUC_HILL_SLOPE 1.78, PBLUC_R_SQUARED 0.641, read-out: LUCIFERASE INFECTION ASSAY - IC50) of 2.4 µM and an IC90 of 8.23 µM.

In the case of `CCN(CC)C(=O)c1sc2nc(-c3ccccn3)nc(O)c2c1C`, the IC50 [1] is reported as greater than 10 µM and the IC90 is reported as greater than 10 µM.

In the case of `N#Cc1ccsc1NC(=O)COc1ccc([N+](=O)[O-])cc1Cl`, the IC50 (FFLUC_HILL_SLOPE 45.5, FFLUC_R_SQUARED 0.53, PBLUC_HILL_SLOPE 0.51, PBLUC_R_SQUARED 0.745, read-out: LUCIFERASE INFECTION ASSAY - IC50) is reported as 0.444 µM and the IC90 is reported as greater than 10 µM.

`O=C(Cc1cn2ccsc2n1)NNC(=O)c1cc(Cl)ccc1O` was tested, and the IC50 (HEPG2TOX_HILL_SLOPE 0.838, HEPG2TOX_R_SQUARED 0.788, PBLUC_HILL_SLOPE 20.5, PBLUC_R_SQUARED 0.865, read-out: LUCIFERASE INFECTION ASSAY - IC50) was 0.372 µM and the IC90 was 0.414 µM.

Work on `CCOc1ccccc1NC(=O)CSc1nnc2cc(C)c3ccccc3n12` yielded an IC50 [1] greater than 10 µM and an IC90 greater than 10 µM.

Work on `O=C(COC(=O)c1ccccc1NCCO)NC(=O)NCc1ccco1` yielded an IC50 [1] greater than 10 µM and an IC90 greater than 10 µM.

In the case of `O=C(Nc1nccs1)C1CCCNC1` (stereo not drawn), the IC50 (PBLUC_HILL_SLOPE 12.1, PBLUC_R_SQUARED 0.548, read-out: LUCIFERASE INFECTION ASSAY - IC50) is reported as 8.7 µM and the IC90 is reported as greater than 10 µM.

`Cc1cc(C(C)(C)C)cc(C)c1CCNC(=O)c1ccc[n+]([O-])c1` was tested, and the IC50 [1] was greater than 10 µM and the IC90 was greater than 10 µM.

In the case of `COc1ccc(OC)c(CN2CCN(c3nc(-c4cccnc4)nc4sc(C)c(C)c34)CC2)c1`, the IC50 (PBLUC_HILL_SLOPE 4.71, PBLUC_R_SQUARED 0.569, read-out: LUCIFERASE INFECTION ASSAY - IC50) is reported as 4.29 µM and the IC90 is reported as 6.84 µM.

For `CCn1cc(CN(C)C(=O)c2sc3cccc(Cl)c3c2Cl)c(C)n1`, the IC50 [1] was greater than 8.63 µM and the IC90 was greater than 8.63 µM.

Compound `CC(OC(=O)c1n[nH]c(=O)c2ccccc12)C(=O)N(CCC#N)c1ccccc1` (stereo not drawn) has an IC50 [1] greater than 10 µM and an IC90 greater than 10 µM.

Compound `CCC(=O)N1CCCC(C(=O)NCc2ccc(C(C)C)cc2)CC1` (stereo not drawn) has an IC50 [1] greater than 9.99 µM and an IC90 greater than 9.99 µM.

Work on `COc1cc(/C=C/C(=O)Nc2ccc3c(c2)nc2n3CCCCC2)ccc1OS(=O)(=O)c1ccc(C)cc1` yielded an IC50 (HEPG2TOX_HILL_SLOPE 1.59, HEPG2TOX_R_SQUARED 0.591, PBLUC_HILL_SLOPE 1.96, PBLUC_R_SQUARED 0.277, read-out: LUCIFERASE INFECTION ASSAY - IC50) of 2.71 µM and an IC90 of 8.3 µM.

For `COc1ccc(-c2cnc3cnc(-c4cccc(NS(C)(=O)=O)c4)cn23)cc1`, the IC50 (PBLUC_HILL_SLOPE 9.6, PBLUC_R_SQUARED 0.49, read-out: LUCIFERASE INFECTION ASSAY - IC50) was 2.94 µM and the IC90 was 3.7 µM.

Work on `COc1ccc(OC)c(NC(=O)Nc2ccc(OC(F)(F)F)cc2)c1` yielded an IC50 (PBLUC_HILL_SLOPE 22.3, PBLUC_R_SQUARED 0.0229, read-out: LUCIFERASE INFECTION ASSAY - IC50) of 9.07 µM and an IC90 greater than 9.26 µM.

Work on `CCCCCCC(/C=N/NC(=O)c1ccccc1O)=C\c1ccccc1` yielded an IC50 [1] greater than 10 µM and an IC90 greater than 10 µM.

`Cc1ccc(Sc2ccc(/C=C/C(=O)c3ccc(Cl)c(Cl)c3Cl)cc2[N+](=O)[O-])cc1` was tested, and the IC50 [1] was greater than 10 µM and the IC90 was greater than 10 µM.

In the case of `O=C(Nc1ccc(SC(F)(F)F)cc1)N1CCN(c2nc(-c3ccccc3)ns2)CC1`, the IC50 (HEPG2TOX_HILL_SLOPE 7.08, HEPG2TOX_R_SQUARED 0.48, PBLUC_HILL_SLOPE 1.8, PBLUC_R_SQUARED 0.469, read-out: LUCIFERASE INFECTION ASSAY - IC50) is reported as 3.31 µM and the IC90 is reported as greater than 7.09 µM.

Compound `CS(=O)(=O)c1ccc2c(c1)sc1nc(-c3ccccc3Cl)cn12` has an IC50 (PBLUC_HILL_SLOPE 1.82, PBLUC_R_SQUARED 0.22, read-out: LUCIFERASE INFECTION ASSAY - IC50) of 4.47 µM and an IC90 greater than 10 µM.

Compound `CC(=O)Nc1ccc(S(=O)(=O)N(C)CC(=O)NCCC(=O)N2CCCC2)cc1` has an IC50 [1] greater than 10 µM and an IC90 greater than 10 µM.

For `COC(=O)c1ccccc1N1C(=O)C=CC1=O`, the IC50 (FFLUC_HILL_SLOPE 4.6, FFLUC_R_SQUARED 0.0459, HEPG2TOX_HILL_SLOPE 7.42, HEPG2TOX_R_SQUARED 0.806, PBLUC_HILL_SLOPE 7.78, PBLUC_R_SQUARED 0.766, read-out: LUCIFERASE INFECTION ASSAY - IC50) was 4.47 µM and the IC90 was 5.93 µM.

`Cc1cc(Cl)n2ncc(-c3ccc(F)cc3)c2n1` was tested, and the IC50 (HEPG2TOX_HILL_SLOPE 0.63, HEPG2TOX_R_SQUARED 0.416, PBLUC_HILL_SLOPE 2.81, PBLUC_R_SQUARED 0.71, read-out: LUCIFERASE INFECTION ASSAY - IC50) was 5.62 µM and the IC90 was 12.3 µM.

`Cc1oc(=S)n(CN2CCN(S(=O)(=O)c3ccc4ccccc4c3)CC2)c1C` gave an IC50 [1] greater than 10 µM and an IC90 greater than 10 µM.

`Fc1cccc(-c2cnc3sc(NCCc4ccncc4)nn23)c1` gave an IC50 (HEPG2TOX_HILL_SLOPE 0.66, HEPG2TOX_R_SQUARED 0.128, read-out: LUCIFERASE INFECTION ASSAY - IC50) greater than 9.72 µM and an IC90 greater than 9.72 µM.

Compound `CCCCn1nc(C(=O)NC(c2ccccc2)c2ccc(OC)cc2)c2ccccc2c1=O` (stereo not drawn) has an IC50 [1] greater than 10 µM and an IC90 greater than 10 µM.

For `O=C(c1cccc2ccccc12)N(c1ccc(F)cc1)c1nc2ccccc2s1`, the IC50 (PBLUC_HILL_SLOPE 22.2, PBLUC_R_SQUARED 0.211, read-out: LUCIFERASE INFECTION ASSAY - IC50) was 9.18 µM and the IC90 was greater than 10 µM.
